The target of test [1] is T1, human D3 dopamine receptor (hD3) (Homo sapiens, UniProt P35462).
T1 construct: expressed in transfected cells; host or cells: CHO cells
In words: [3H]spiperone binding to human D3 dopamine receptor (transfected CHO cell membranes). The settings on record: CHO cells transfected with hD3. Here is the method: CHO cells were transfected with the gene coding for the human D3 dopamine receptor (hD3). [^3H]spiperone binding (0.5 to 2 nM) is performed in the presence of 5 to 10 μg of membrane proteins in a medium containing 120 mM of NaCl, 5 mM of KCl, and 50 mM of Tris-HCl pH 7.4; incubation of 60 minutes at ambient temperature is necessary. Non-specific binding is estimated in the presence of 5 μM of haloperidol. Non-transfected cells have absolutely no binding activity.

The subject of test [2] is human alpha-1 adrenergic receptor (hα1). The experiment in a line: [3H]prasozin binding to human alpha-1 adrenergic receptor (transfected HEK 293 cell membranes). The settings on record: HEK 293 cells transfected with hα1. Here is the method: HEK 293 cells were transfected with the gene coding for the human alpha-1 adrenergic receptor (hα1). [3H]prasozin binding (0.02 to 2 nM) is performed in the presence of 5 to 10 μg of membrane proteins in a medium containing 0.5 mM of EDTA and 50 mM of Tris-HCl pH 7.4; incubation of 60 minutes at ambient temperature is necessary. Non-specific binding is estimated in the presence of 10 μM of phentolamine. Non-transfected cells have absolutely no binding activity.

Each structure is given as a SMILES string. pKi: −log10 of the molar value. Counter-ions that a name gives are not always drawn.

T1 sequence (P35462 whole entry): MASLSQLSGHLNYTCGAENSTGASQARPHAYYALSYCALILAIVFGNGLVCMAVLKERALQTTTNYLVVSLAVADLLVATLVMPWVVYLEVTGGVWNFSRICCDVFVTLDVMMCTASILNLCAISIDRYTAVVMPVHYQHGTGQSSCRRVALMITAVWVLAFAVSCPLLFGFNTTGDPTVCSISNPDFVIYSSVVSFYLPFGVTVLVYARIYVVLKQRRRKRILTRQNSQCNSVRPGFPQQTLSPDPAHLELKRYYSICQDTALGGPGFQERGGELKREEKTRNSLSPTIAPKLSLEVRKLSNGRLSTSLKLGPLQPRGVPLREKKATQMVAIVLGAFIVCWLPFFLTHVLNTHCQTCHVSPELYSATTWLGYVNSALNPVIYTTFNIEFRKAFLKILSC

As a reminder, the pKi is the negative decadic logarithm of the Ki, by convention in mol/L. Low readings indicate a large Ki, high ones a small Ki. Regarding `FC(F)(F)c1cccc(N2CCN(CCCCNc3cc(-c4ccccc4)ccn3)CC2)c1` [Example 4, 2-{4-[4-(3-trifluoromethyl-phenyl)piperazin-1-yl]butyl}amino-4-phenylpyridine dihydrochloride], the negative logarithm of the Ki (pKi) in test [1] is 9.12; in test [2] it was 6.79.
On to `Clc1cccc(N2CCN(CCCCNc3cc(-c4ccccc4)ccn3)CC2)c1Cl` [Example 6, 2-{4-[4-(2,3-dichlorophenyl)piperazin-1-yl]butyl}amino-4-phenylpyridine], for which the pKi in test [1] was 9.26; in test [2], 6.87.

The values above are taken from US7432269B2, “Arylpiperaszine derivatives, to the process for the production thereof and to the use thereof as therapeutic agents” (Bioprojet, priority 2004, dated 2008).
